Assay: Lipophilicity, log D of the compound
Assay type: physicochemical
Details: octanol/water

logD | Compound
2 | CC(CN(C)C)N(C)c1cnc(C(=O)NCC(C)(C)c2ccccc2)cn1 (stereo not drawn)
3.2 | O=C(NCC1CC1)c1cncc(NCCc2cccc(O)c2)n1
3.6 | CC(C)(CNC(=O)c1cncc(N[C@@H](CO)c2ccccc2)n1)c1ccccc1
4 | CC(C)(CNC(=O)c1cnc2ccccc2n1)c1ccccc1
3.9 | O=C(NC1CCCCCC1)c1cnc(N2CCCCC2)cn1
4.5 | CC(C)(CNC(=O)c1cnc(N2CCCCC2)cn1)c1ccccc1

The next lines start with the molecule.

Compound | logD
C[C@H]1CC[C@H](NC(=O)c2cnc(N3CCC(CO)CC3)cn2)CC1 | 3.3
CC(C)(CNC(=O)c1cnc(-c2ccccc2)cn1)c1ccccc1 | 3.4
CCN(C)c1cncc(C(=O)NC2Cc3ccccc3C2)n1 | 3.6
C[C@H]1CC[C@H](NC(=O)c2cnc(N3CCCCC3)cn2)CC1 | 4.4
O=C(NCC1CC1)c1cncc(N2CCCN(Cc3ccccc3)CC2)n1 | 3
CCCCN(C)c1cncc(C(=O)NC2CCCCCC2)n1 | 3.8
CN(CCC#N)c1cnc(C(=O)NCC(C)(C)c2ccccc2)cn1 | 2.9
CC(C)(CNC(=O)c1cncc(N2CCCCC2)n1)c1ccccc1 | 4.4
CN(CCO)c1cncc(C(=O)NCC(C)(C)c2ccccc2)n1 | 2.7
CC(C)(CNC(=O)c1cnc(N2CCC(CO)CC2)cn1)c1ccccc1 | 3.5
CC(C)(CNC(=O)c1cncc(-c2ccccc2)n1)c1ccccc1 | 2.6

Assay: Permeability in artificial membrane assessed as diffusion rate by PAMPA assay
Assay type: ADME
Details: read-out: permeability

Papp | Compound
25.5 ×10⁻⁶ cm/s | C[C@H]1CC[C@H](NC(=O)c2cnc(N3CCC(CO)CC3)cn2)CC1
